Experimental data: patent publication US11325892B2, “Compounds and methods for treating cancer” (Mayo Foundation for Medical Education and Research, priority 2014, dated 2022)

What was measured:
Type in all cases: cell-based
[1] = test system: A498, ACHN, and Caki1 cell lines; assay: Oleic acid (OA) rescue assay of cell proliferation in ccRCC cells; settings: EC50 dose of compound with OA (5 μg/μL); all three cell lines
Method: (§1) Cells were seeded at 5,000 cells/well in clear-bottom 96-well plates in triplicate in Maintenance Media. Drug treatment was applied at a concentration of 1:1000 in reduced serum (3%) Maintenance Media. After 72 hours, cells were washed with PBS, and stored at −80° C. prior to analysis using CyQuant® Proliferation Analysis Kit (Invitrogen) as per manufacturers' protocol for relative fluorescence units. Alternatively, cells were plated 2×10^5/well in 12-well plates (Midwest Scientific) in triplicate prior to drug treatment. After 120 hour treatment, cell number was established using a Coulter Particle Counter (Beckman). Or, cells were plated (0.5 or 1×10^5/well) in 24-well plates (Midwest Scientific), 3×. After 72 hour treatment, cell number established using Coulter Particle Counter (Beckman). Oleic acid-albumin (Sigma Aldrich) was added to media at 5 μM, and was applied adjuvant to drug treatment. Drug stocks were prepared in DMSO (Sigma) at 1000×. EC50 dosing per cell line was calculated using CalcuSyn® analytical software.
A498, ACHN, and Caki1 cell lines were treated with the EC50 dose of each MF-438, ChemBL375265, SSI-1, SSI-4, SSI-3, and SSI-2 with or without concomitant application of OA (5 μg/μL). […] Representative images of A498 cell morphology and density treated with each compound +/−OA are shown in (FIG. 2B).

ATC cells = assay: Proliferative dose response of thyroid cells; settings: ATC cells; for proliferation: 72H treatment; for 50% effective concentrations (EC50): proliferation
Method: as §1
The efficacy of pharmacologic inhibition of this enzyme on tumor cell proliferation after a 72H treatment was determined, using A939572-a commercially available small molecule SCD1 inhibitor (Xin Z, Zhao H, Serby M D, Liu B, Liu M, Szczepankiewicz B G, Nelson L T, Smith H T, Suhar T S, Janis R S, Cao N, Camp H S, Collins C A, Sham H L, Surowy T K, Liu G. Discovery of piperidine-aryl urea-based stearoyl-CoA desaturase 1 inhibitors. Bioorg Med Chem Lett. 2008; 18(15):4298-302). […] Despite conspicuous SCD1 expression in 4 of the 5 FTC cells tested, no response to A939572 was observed (FIG. 10D).
THJ29T, THJ16T, and KTC2 were treated with carfilzomib (FIG. 12A) or bortezomib for 72H in order to establish EC50 values. […] Anti-proliferative drug synergy was evaluated in THJ29T and THJ16T treated with either A939572 or MF-438 in combination with either bortezomib or carfilzomib for 48H. Synergy was assessed using CalcuSyn analytical software, which determines the combination index (CI) based on the Chou-Talalay method where CI values >1 represent an antagonistic effect and values <1 represent synergy, and lower values signify enhanced synergy (Chou T C, Talalay P. Analysis of Combined Drug Effects—a New Look at a Very Old Problem. Trends in Pharmacological Sciences. 1983; 4(11):450-4).

[2] = test system: THJ29T, THJ16T and KTC2 cells; assay: Oleic acid rescue of proliferation in ATC cells; settings: EC50 dose for 72H with 5 μM oleic acid
Method: as §1, with “software. […]” for “software.”

[3] = test system: PARP cleavage and CHOP expression in THJ29T and THJ16T; assay: Western blot for PARP cleavage and CHOP expression, combinatorial therapy; settings: EC50 doses, 48H
Method: (§2) Protein extraction and western blot analysis was performed as previously described (Copland J A, Marlow L A, Kurakata S, et al. Novel high-affinity PPARgamma agonist alone and in combination with paclitaxel inhibits human anaplastic thyroid carcinoma tumor growth via p21WAF1/CIP1. Oncogene. Apr 13 2006; 25(16):2304-2317). Primary antibodies included SCD1 (Sigma-Aldrich, #HPA012107), BiP (Cell Signaling, #3183), CHOP (Cell Signaling, #2895), sXBP1(Santa Cruz Biotechnology, #sc-7160), PARP(Cell Signaling, #9542), and β-actin (Sigma-Aldrich, #A5441).
THJ29T and THJ16T treated for 48H with EC50 doses of either A939572 or MF-438 in combination with either carfilzomib or bortezomib were probed for PARP cleavage and CHOP expression, both markers indicative of apoptosis (FIGS. 14A-B, 15A-B). […] Cell death was additionally examined via flow cytometry using propidium iodide staining. THJ29T and THJ16T were treated for 48H with EC50 doses of either A939572 or MF-438 in combination with either carfilzomib or bortezomib prior to staining and analysis.

[4] = test system: PARP cleavage, CHOP, s-XBP1, HERPUD1 in ATC cells; assay: PARP cleavage and UPR protein expression in ATC cells; settings: EC50 dose for 72H; all three ATC cells; abrogated with OA
Method: as §2
Cells were plated in 4-chamber slides (Thermo Scientific) prior to drug treatment. […]
Exogenous application of MUFAs, such as oleic or palmitoleic acid, can rescue the proliferative defects generated by SCD1 inhibition as these are the primary products of SCD1 enzymatic activity (Roongta U V, Pabalan J G, Wang X, Ryseck R P, Fargnoli J, Henley B J, Yang W P, Zhu J, Madireddi M T, Lawrence R M, Wong T W, Rupnow B A. Cancer cell dependence on unsaturated fatty acids implicates stearoyl-CoA desaturase as a target for cancer therapy. Mol Cancer Res. 2011; 9(11):1551-61). […] Transcriptional upregulation of UPR markers including GADD45a (Growth arrest and DNA damage inducible transcript 1, DDIT1), DDIT3 (DNA damage inducible transcript 3, CHOP), and HERPUD1 homocysteine-inducible, ER stress inducible, ubiquitin-like-1) were evaluated by QPCR.

SMILES	rescue of cell proliferation with OA [1]	proliferation (ATC cells)	50% effective concentrations (EC50) (ATC cells)	rescue of proliferation with OA [2]	PARP cleavage as compared to DMSO control [3]	apoptosis as evaluated by PARP cleavage [4]
Cc1nnc(-c2ccc(N3CCC(Oc4ccccc4C(F)(F)F)CC3)nn2)s1 [MF-438, 2-methyl-5-(6-(4-(2-(trifluoromethyl)phenoxy)piperidin-1-yl)pyridazin-3-yl)-1,3,4-thiadiazole]	Near total rescue of cell proliferation	dose-dependent decrease in ATC proliferation	low nanomolar dose range	complete rescue of proliferation	significant PARP cleavage	
CNC(=O)c1cccc(NC(=O)N2CCC(Oc3ccccc3Cl)CC2)c1 [A939572]		dose-dependent decrease in proliferation	low nanomolar dose range	complete rescue of proliferation	significant PARP cleavage	induced apoptosis
